Laboratory results: patent publication US20230192617A1, “AZABICYCLIC(THIO)AMIDES AS FUNGICIDAL COMPOUNDS” (Bayer CropScience Aktiengesellschaft, priority 2020, published 2023)

Tests used:
[1] = test system: Pyrenophora teres; test: B-10. Pyrenophora teres in vitro cell test; assay type: cell-based; conditions: 144 h, 20 ppm of active ingredient, 6 days incubation, liquid culture, absorbance, read-out: efficacy (inhibition of fungal growth)
Experimental: (§1) B-10. Pyrenophora teres In Vitro Cell Test [table] Fungicides were solubilized in DMSO and the solution used to prepare the required range of concentrations. The final concentration of DMSO used in the assay was ≤1%. A spore suspension of P. teres was prepared and diluted to the desired spore density. Fungicides were evaluated for their ability to inhibit spore germination and mycelium growth in liquid culture assay. The compounds were added in the desired concentration to the culture medium with spores. After 6 days incubation, fungi-toxicity of compounds was determined by spectrometric measurement of mycelium growth. Inhibition of fungal growth was determined by comparing the absorbance values in wells containing the fungicides with the absorbance in control wells without fungicides.

[2] = test system: Alternaria alternata; test: Alternaria alternata in vitro cell test; assay type: cell-based; conditions: 120 h, 20 ppm of active ingredient, liquid culture, 5 days incubation, spectrometric measurement of mycelium growth, read-out: efficacy (inhibition of fungal growth)
Experimental: as §1, with “B-6. Alternaria alternata” for “B-10. Pyrenophora teres”, “A. alternata” for “P. teres”, “5” for “6”

[3] = test system: Botrytis cinerea; test: B-11. Botrytis cinerea in vitro cell test; assay type: cell-based; conditions: 144 h, 20 ppm of active ingredient, 6 days incubation, liquid culture, absorbance, read-out: efficacy (inhibition of fungal growth)
Experimental: as §1, with “B-11. Botrytis cinerea” for “B-10. Pyrenophora teres”, “B. cinerea” for “P. teres”

[4] = test system: Colletotrichum lindemuthianum; test: B-8. Colletotrichum lindemuthianum in vitro cell test; assay type: cell-based; conditions: 144 h, 20 ppm of active ingredient, 6 days incubation, liquid culture, absorbance, read-out: efficacy (inhibition of fungal growth)
Experimental: as §1, with “B-8. Colletotrichum lindemuthianum In” for “B-10. Pyrenophora teres In”, “of C. lindemuthianum” for “of P. teres”, “inhibit spores” for “inhibit spore”

[5] = Measurement of Log P values by HPLC on reversed phase columns (EEC directive 79/831 Annex V.A8); assay type: physicochemical; conditions: reversed phase HPLC column, method [a]: LC-UV, acidic range, 0.1% formic acid in water and acetonitrile as eluent
Experimental: A-1.1. Measurement of Log P Values
Measurement of Log P values as provided herein was performed according to EEC directive 79/831 Annex V.A8 by HPLC (High Performance Liquid Chromatography) on reversed phase columns with the following methods:
^[a] Log P value is determined by measurement of LC-UV, in an acidic range, with 0.1% formic acid in water and acetonitrile as eluent (linear gradient from 10% acetonitrile to 95% acetonitrile).
^[b] Log P value is determined by measurement of LC-UV, in a neutral range, with 0.001 molar ammonium acetate solution in water and acetonitrile as eluent (linear gradient from 10% acetonitrile to 95% acetonitrile).
^[c] Log P value is determined by measurement of LC-UV, in an acidic range, with 0.1% phosphoric acid and acetonitrile as eluent (linear gradient from 10% acetonitrile to 95% acetonitrile).
If more than one Log P value is available within the same method, all the values are given and separated by “+”. […]

[6] = test system: Botrytis cinerea; test: In vivo preventive test on Botrytis cinerea (grey mould); conditions: 500 ppm of active ingredient, preventive spray on gherkin or cabbage, evaluated 4 to 5 days after inoculation, read-out: efficacy
Experimental: B-2. In Vivo Preventive Test on Botrytis cinerea (Grey Mould) [table] The active ingredients were made soluble and homogenized in a mixture of Dimethyl sulfoxide/Acetone/Tween® 80 and then diluted in water to the desired concentration. The young plants of gherkin or cabbage were treated by spraying the active ingredient prepared as described above. Control plants were treated only with an aqueous solution of Acetone/Dimethyl sulfoxide/Tween® 80. After 24 hours, the plants were contaminated by spraying the leaves with an aqueous suspension of Botrytis cinerea spores. The contaminated gherkin plants were incubated for 4 to 5 days at 17° C. and at 90% relative humidity. The contaminated cabbage plants were incubated for 4 to 5 days at 20° C. and at 100% relative humidity.

[7] = test system: Alternaria brassicae; test: In vivo preventive test on Alternaria brassicae (leaf spot on radish or cabbage); conditions: 500 ppm of active ingredient, preventive spray on radish or cabbage, evaluated 3 to 4 days after inoculation, read-out: efficacy
Experimental: B-1. In Vivo Preventive Test on Alternaria brassicae (Leaf Spot on Radish or Cabbage) [table] The active ingredients were made soluble and homogenized in a mixture of Dimethyl sulfoxide/Acetone/Tween® 80 and then diluted in water to the desired concentration. The young plants of radish or cabbage were treated by spraying the active ingredient prepared as described above. Control plants were treated only with an aqueous solution of Acetone/Dimethyl sulfoxide/Tween® 80. After 24 hours, the plants were contaminated by spraying the leaves with an aqueous suspension of Alternaria brassicae spores. The contaminated radish or cabbage plants were incubated for 3 to 4 days at 20° C. and at 100% relative humidity.

Structure (SMILES) | inhibition at 20 ppm [1] [%] | inhibition at 20 ppm [2] [%] | inhibition at 20 ppm [3] [%] | inhibition at 20 ppm [4] [%] | chromatographic logP [5] | pest or weed control at 500 ppm [6] [%] | pest or weed control at 500 ppm [7] [%]
O=C(C[C@H]1C[C@@]12CCc1cc(Br)ccc12)c1c(Oc2cccc(C(F)(F)F)c2)nnc2ccccc12 (mixture of isomers) [I-097] | 90 to 100 | 80 to 89 | 90 to 100 | 90 to 100 | 4.74 | 80 to 89 | –
C[C@H](NC(=O)c1c(Oc2cccc(C(F)(F)F)c2)nnc2ccccc12)c1ccc(Cl)s1 (racemic) [I-080] | 90 to 100 | 90 to 100 | 90 to 100 | 90 to 100 | 4.1 | – | –
O=C(N[C@H]1CCCc2sc(C3CC3)nc21)c1c(Oc2cccc(C(F)(F)F)c2)nnc2ccccc12 (racemic) [I-091] | 90 to 100 | 70 to 79 | 90 to 100 | 80 to 89 | 3.92 | – | –
O=C(N[C@H]1CCSc2ccc(F)cc21)c1c(Oc2cccc(C(F)(F)F)c2)nnc2ccccc12 (racemic) [I-095] | 90 to 100 | 70 to 79 | 90 to 100 | 80 to 89 | 4.02 | 90 to 100 | –
O=C(N[C@H]1CCCc2ccc(Br)cc21)c1c(Oc2cccc(C(F)(F)F)c2)nnc2ccccc12 (racemic) [I-096] | 90 to 100 | – | 90 to 100 | 90 to 100 | 4.54 | – | –
CCc1cccc2c1OCC[C@@H]2NC(=O)c1c(Oc2cccc(C(F)(F)F)c2)nnc2ccccc12 (racemic) [I-168] | 90 to 100 | – | 90 to 100 | 90 to 100 | 4.45 | – | –
Cc1ccc2c(c1)[C@@H](NC(=O)c1c(Oc3cccc(C(F)(F)F)c3)nnc3ccccc13)CC(C)(C)O2 (racemic) [I-173] | 90 to 100 | – | 90 to 100 | – | 4.44 | – | –
O=C(NC[C@H](F)c1ccc(Cl)c(Cl)c1)c1c(Oc2cccc(C(F)(F)F)c2)nnc2ccccc12 (racemic) [I-182] | 90 to 100 | 90 to 100 | 80 to 89 | 80 to 89 | 4.33 | – | –
O=C(N[C@H]1CCCc2cc(Br)ccc21)c1c(Oc2cccc(C(F)(F)F)c2)nnc2ccccc12 (racemic) [I-193] | 90 to 100 | 70 to 79 | 90 to 100 | 90 to 100 | 4.66 | – | –
CC1(C)Cc2cc(Cl)c(F)cc2[C@@H](NC(=O)c2c(Oc3cccc(C(F)(F)F)c3)nnc3ccccc23)C1 (racemic) [I-197] | 90 to 100 | – | 90 to 100 | – | 4.82 | – | –
Cc1ccc(CCNC(=O)c2c(Oc3cccc(C(F)(F)F)c3)nnc3ccccc23)o1 [I-075] | 90 to 100 | 90 to 100 | 90 to 100 | 90 to 100 | 3.6 | – | –
Cc1cnn(CCNC(=O)c2c(Oc3cccc(C(F)(F)F)c3)nnc3ccccc23)c1 [I-076] | 90 to 100 | – | 90 to 100 | 90 to 100 | 2.74 | – | 80 to 89
O=C(N[C@H]1CCCc2ccc(Cl)cc21)c1c(Oc2cccc(C(F)(F)F)c2)nnc2ccccc12 [I-094] | 90 to 100 | 70 to 79 | 90 to 100 | 90 to 100 | 4.44 | – | –
N#Cc1ccc(C(F)(F)CNC(=O)c2c(Oc3cccc(C(F)(F)F)c3)nnc3ccccc23)c(Cl)c1 [I-098] | 90 to 100 | 80 to 89 | 90 to 100 | – | 3.94 | 90 to 100 | –
Cc1ccc(C(F)CNC(=O)c2c(Oc3cccc(C(F)F)c3)nnc3c2CCCC3)c(C)c1 (centres unmarked) [I-135] | 90 to 100 | 90 to 100 | 90 to 100 | 90 to 100 | 3.53 | – | –
O=C(NCCc1cccc2[nH]ccc12)c1c(Oc2cccc(C(F)(F)F)c2)nnc2ccccc12 [I-161] | 90 to 100 | – | 90 to 100 | – | – | – | –
Cc1ccc(C(F)(F)CNC(=O)c2c(Oc3cccc(C(F)(F)F)c3)nnc3cc(F)ccc23)c(C)c1 [I-166] | 90 to 100 | 90 to 100 | 90 to 100 | 90 to 100 | 4.74 | – | –
C=C(OCC)c1ccc(C(F)(F)CNC(=O)c2c(Oc3cccc(C(F)(F)F)c3)nnc3ccccc23)c(Cl)c1 [I-169] | 90 to 100 | – | 90 to 100 | 80 to 89 | 5.16 | – | 90 to 100
O=C(N[C@H]1CCS(=O)(=O)c2ccccc21)c1c(Oc2cccc(C(F)(F)F)c2)nnc2ccccc12 [I-174] | 80 to 89 | – | 90 to 100 | 80 to 89 | 2.98 | – | –
O=C(N[C@H]1CCOc2cc(F)ccc21)c1c(Oc2cccc(C(F)(F)F)c2)nnc2ccccc12 [I-178] | 90 to 100 | – | 90 to 100 | 90 to 100 | 3.69 | – | 90 to 100
O=C(NCC(F)(F)c1cc(Cl)sc1Cl)c1c(Oc2cccc(C(F)(F)F)c2)nnc2ccccc12 [I-199] | 90 to 100 | – | 80 to 89 | – | 4.68 | – | –
O=C(NCCOc1ccc(C(F)(F)F)cc1Cl)c1c(Oc2cccc(C(F)(F)F)c2)nnc2ccccc12 [I-203] | 90 to 100 | – | 70 to 79 | – | 4.33 | – | –
Cc1cc(C)n(CCNC(=O)c2c(Oc3cccc(C(F)(F)F)c3)nnc3ccccc23)n1 [I-240] | 90 to 100 | – | 80 to 89 | – | 2.78 | – | –
O=C(NCCc1ccc2[nH]ccc2c1)c1c(Oc2cccc(C(F)(F)F)c2)nnc2ccccc12 [I-249] | 90 to 100 | – | 90 to 100 | – | 3.3 | – | –
